Eight molecules from PubChem BioAssay (NCI) can be followed below.

Each structure is given as a SMILES string.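 Values below derive from 48-hour exposures of cells grown in 96-well plates, with endpoints linearly interpolated between the two concentrations bracketing the appropriate inhibition level. GI50 is the concentration that inhibits growth by half. At the TGI there is no net growth.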

Some test systems named below: COLO 205 colon; SW-620 colon; ACHN renal; OVCAR-5 ovarian; PC-3 prostate; SNB-75 CNS; MDA-MB-435; 786-0 renal; BT-549 breast; MALME-3M melanoma.
Common to all, as to experiment: NCI tumour cell line growth inhibition, 48 h

Regarding `Cc1ccc([N+](=O)[O-])c2c(NCCNC(=O)c3cc(C(=O)NCCNc4ccnc5c(C)ccc([N+](=O)[O-])c45)n(C)n3)ccnc12`, the TGI was more than 100000 nM with COLO 205 colon; 53400 nM with SW-620 colon; more than 100000 nM in the assay on ACHN renal; more than 100000 nM with OVCAR-5 ovarian; more than 100000 nM in the assay with PC-3 prostate; more than 87300 nM in the assay on SNB-75 CNS. The TGI with MDA-MB-435 was more than 56100 nM; with 786-0 renal it was 98200 nM; in the assay with BT-549 breast, more than 100000 nM; in the assay on MALME-3M melanoma it was more than 73200 nM.

With `CSc1nc2nc3c(nc2c(=O)n1C)C(=O)c1ccccc1C3=O`, the GI50 was 173 nM in the assay on COLO 205 colon; 252 nM with SW-620 colon; 299 nM in the assay with ACHN renal; 199 nM in the assay with OVCAR-5 ovarian; 269 nM with PC-3 prostate; 128 nM in the assay with SNB-75 CNS. Besides, the GI50 in the assay on MDA-MB-435 was 21.8 nM; in the assay with 786-0 renal, 402 nM; in the assay on BT-549 breast, 159 nM; with MALME-3M melanoma it was 40.6 nM. Besides, the TGI with COLO 205 colon is 357 nM; with SW-620 colon, 738 nM; in the assay with ACHN renal, 1040 nM; in the assay with OVCAR-5 ovarian, 355 nM; in the assay with PC-3 prostate it was 1460 nM; with SNB-75 CNS, 266 nM. Besides, the TGI in the assay on MDA-MB-435 came to 47.1 nM; in the assay with 786-0 renal, 1460 nM; in the assay on BT-549 breast it was 305 nM; with MALME-3M melanoma, 166 nM.

In the case of `CN=C1C=CC(=C(c2ccc(N(C)C)cc2)c2ccc(N(C)C)cc2)C=C1`, the GI50 in the assay on COLO 205 colon was 184 nM; with SW-620 colon, 185 nM; in the assay with ACHN renal, 326 nM; in the assay with OVCAR-5 ovarian, 312 nM; in the assay on PC-3 prostate, 286 nM; with SNB-75 CNS, 295 nM. Also, the GI50 with MDA-MB-435 is 251 nM; in the assay on 786-0 renal, 292 nM; with BT-549 breast it was 265 nM; with MALME-3M melanoma, 406 nM. Further, the TGI in the assay with COLO 205 colon is 524 nM; with SW-620 colon, 1350 nM; in the assay with ACHN renal, 1330 nM; in the assay with OVCAR-5 ovarian, 3430 nM; with PC-3 prostate, 1090 nM; with SNB-75 CNS, 1040 nM. Further, the TGI in the assay on MDA-MB-435 came to 660 nM; in the assay on 786-0 renal, 1180 nM; in the assay with BT-549 breast it was 1280 nM; in the assay on MALME-3M melanoma it was 1950 nM.

With `O=C1/C(=C/c2ccc(F)cc2)CN(C(=O)CCN2CCC(=NO)CC2)C/C1=C\c1ccc(F)cc1`, the GI50 in the assay on COLO 205 colon is 1940 nM; in the assay with SW-620 colon, 375 nM; in the assay with ACHN renal, 1080 nM; in the assay with OVCAR-5 ovarian it was 1830 nM; in the assay with PC-3 prostate, 855 nM; with SNB-75 CNS it was 2290 nM. The GI50 in the assay with MDA-MB-435 is 827 nM; with 786-0 renal it was 1480 nM; with BT-549 breast, 1580 nM; in the assay with MALME-3M melanoma, 1860 nM. Besides, the TGI in the assay on COLO 205 colon stood at 5500 nM; in the assay on SW-620 colon it was 1070 nM; in the assay with ACHN renal, 2860 nM; in the assay with OVCAR-5 ovarian, 4110 nM; with PC-3 prostate it was 2970 nM; in the assay with SNB-75 CNS, 7500 nM. The TGI in the assay with MDA-MB-435 came to 2720 nM; with 786-0 renal, 3450 nM; with BT-549 breast, 3210 nM; with MALME-3M melanoma, 4890 nM.

For the molecule `O=C(O)/C(Cc1cn[nH]n1)=N\O`, the TGI with COLO 205 colon, with SW-620 colon, with ACHN renal, in the assay with OVCAR-5 ovarian, in the assay with PC-3 prostate and in the assay with SNB-75 CNS was more than 100000 nM each time. Further, the TGI in the assay with MDA-MB-435, with 786-0 renal, in the assay on BT-549 breast and in the assay with MALME-3M melanoma was more than 100000 nM each time.

Take `COc1cc(C2C3=C(COC3=O)N(CCO)c3cc4c(cc32)OCCO4)cc(OC)c1OC` (stereo not given): the GI50 with COLO 205 colon was 150 nM; in the assay with SW-620 colon it was 226 nM; in the assay on ACHN renal, 1700 nM; with OVCAR-5 ovarian it was 2090 nM; with PC-3 prostate, 185 nM; with SNB-75 CNS, 183 nM. The GI50 was 103 nM in the assay on MDA-MB-435, 369 nM in the assay on 786-0 renal, 320 nM with BT-549 breast and more than 50000 nM in the assay with MALME-3M melanoma. The TGI with COLO 205 colon is 409 nM; in the assay with SW-620 colon, more than 50000 nM; with ACHN renal, more than 50000 nM; with OVCAR-5 ovarian, more than 50000 nM; with PC-3 prostate, more than 50000 nM; with SNB-75 CNS it was more than 50000 nM. For the same molecule, the TGI is 256 nM in the assay with MDA-MB-435, more than 50000 nM with 786-0 renal, more than 11800 nM with BT-549 breast and more than 50000 nM in the assay with MALME-3M melanoma.

For the molecule `CC/C(Cc1ccccc1)=C(\c1ccc(OCCN2CCCC2)cc1)c1ccc(OC(=O)NCc2ccccc2)cc1`, the GI50 with COLO 205 colon is 2110 nM; with SW-620 colon, 1930 nM; with ACHN renal, 1690 nM; with OVCAR-5 ovarian, 1930 nM; in the assay with PC-3 prostate, 1860 nM; with SNB-75 CNS, 2130 nM. The GI50 in the assay on MDA-MB-435 was 1670 nM; in the assay on 786-0 renal, 1640 nM; with BT-549 breast it was 1790 nM; in the assay with MALME-3M melanoma it was 1680 nM. The TGI in the assay with COLO 205 colon was 4280 nM; in the assay with SW-620 colon, 3770 nM; in the assay with ACHN renal it was 3060 nM; in the assay on OVCAR-5 ovarian, 4650 nM; in the assay on PC-3 prostate, 3550 nM; in the assay with SNB-75 CNS, 6530 nM. The TGI came out at 3120 nM with MDA-MB-435, 3000 nM with 786-0 renal, 3470 nM in the assay with BT-549 breast and 3190 nM with MALME-3M melanoma.

For `O=C(CN(/C=C/C(=O)C(F)(F)F)c1ccc(Cl)cc1)c1ccc(Cl)c(Cl)c1`, the GI50 is 14200 nM with COLO 205 colon; 13200 nM in the assay on SW-620 colon; 2480 nM in the assay on ACHN renal; 13400 nM with OVCAR-5 ovarian; 4250 nM in the assay on PC-3 prostate; 13600 nM with SNB-75 CNS. The GI50 was 4030 nM with MDA-MB-435, 11500 nM in the assay on 786-0 renal, 16700 nM with BT-549 breast and 9980 nM in the assay with MALME-3M melanoma. The TGI in the assay with COLO 205 colon is 39400 nM; in the assay with SW-620 colon it was 30500 nM; in the assay with ACHN renal, 9740 nM; in the assay with OVCAR-5 ovarian, 27100 nM; with PC-3 prostate, 16700 nM; in the assay on SNB-75 CNS, 31600 nM. For the same molecule, the TGI was found to be 13500 nM in the assay on MDA-MB-435, 24500 nM in the assay on 786-0 renal, 33300 nM in the assay with BT-549 breast and 22300 nM in the assay with MALME-3M melanoma.
